Tested on: E. Coli (ATCC 25922)
Assay: Photodynamic disinfection kill models (planktonic culture and biofilm)
Type: cell-based
Conditions: 670 nm laser illumination for 60 seconds
Procedure: A 0.01% (v/v) aqueous solution of methylene blue was reduced substantially entirely to the reduced state using ascorbic acid. […] The formulation was then tested for antibacterial efficacy against E. Coli (ATCC® 25922™) using two established photodynamic disinfection kill models (planktonic culture and biofilm) with a 670 nm laser energy source to provide desired illumination for 60 seconds. […] FIG. 2 is a bar graph showing the eradication of E. coli expressed in log^10 reduction in bacterial counts for the various samples used in the experiment. […]

SMILES: O=C1O[C@H]([C@@H](O)CO)C(O)=C1O [ascorbic acid]
- reduction in bacterial counts (viable count) of E. coli: did not itself demonstrate any antibacterial effects
